# In US7202245B2, “Substituted 4-amino[1,2,4]triazolo[4,3-a] quinoxalines” (Pfizer Inc., priority 2003, dated 2007):
# Target: T1, GSK-3 (Homo sapiens, UniProt P49841)
# T1 construct: made in house; as in Stambolic et al. 1996
# Assay: GSK-3 inhibition, cell-free 33P-ATP peptide substrate assay
# Type: biochemical
# Settings: read-out: inhibitory activity, expressed as IC50's, against GSK-3
# Description: The specific activities of the compounds of formula (I) in inhibiting GSK-3 can be determined in both cell-free and cell-based assays, both of which have been previously described in the relevant art. See, for example, U.S. Pat. Nos. 6,417,185 and 6,489,344, the disclosures of which are incorporated herein by reference in their entirety.
# A cell-free testing assay can be generally carried out by incubating GSK-3 with a peptide substrate, radiolabeled ATP (e.g., for example, […], both of which are available from Amersham; Arlington Heights, Ill.), magnesium ions, and the compound to be assayed. […] The amount of γ^33P or γ^32P remaining in each well after washing is then quantified to determine the amount of radiolabeled phosphate incorporated into the peptide substrate. […]
# Another example of a GSK-3 testing assay, similar to the one described hereinabove, is as follows: enzyme activities are assayed as the incorporation of ^33P from the gamma phosphate of ^33P-ATP (Amersham; Arlington Heights, Ill.; catalog #AH-9968) into biotinylated peptide substrate PKTP-KKAKKL. […] The final concentration of ATP is 0.5 μM (final specific radioactivity of 4 μCi/nmol), and the final concentration of substrate is 0.75 μM. […] Radioactivity associated with the beads is then quantified by standard scintillation counting. […]
# T1 sequence (P49841 whole entry): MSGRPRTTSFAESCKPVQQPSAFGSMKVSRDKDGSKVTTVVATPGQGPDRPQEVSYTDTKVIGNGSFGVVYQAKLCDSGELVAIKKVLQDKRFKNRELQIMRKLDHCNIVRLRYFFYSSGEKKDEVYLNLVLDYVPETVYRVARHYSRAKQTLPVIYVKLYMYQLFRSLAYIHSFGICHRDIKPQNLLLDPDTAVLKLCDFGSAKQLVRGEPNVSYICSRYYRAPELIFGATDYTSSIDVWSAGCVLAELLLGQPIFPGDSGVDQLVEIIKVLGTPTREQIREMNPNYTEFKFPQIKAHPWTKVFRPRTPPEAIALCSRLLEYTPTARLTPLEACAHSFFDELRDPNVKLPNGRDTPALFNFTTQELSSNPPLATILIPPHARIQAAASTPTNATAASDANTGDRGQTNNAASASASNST
smiles,measurement,value
"O=c1[nH]nc2c(NCCNc3ccc(C(F)(F)F)cn3)nc3ccc(F)cc3n12 [Example 71, 8-Fluoro-4-[2-(5-trifluoromethyl-pyridin-2-Ylamino)-ethylamino]-2H-[1,2,4]triazolo[4,3-a]quinoxalin-1-one]",IC50,6 nM
